Results: US20170333591A9, “ABSORBENT ARTICLE COMPRISING MALODOR REDUCTION COMPOSITIONS” (The Procter & Gamble Company, priority 2014, published 2017)

Test: Log of liquid dish neat product liquid-air partition coefficient
Assay type: physicochemical
Settings: for Log of liquid dish neat product liquid-air partition coefficient (Comment Code): code letters K/L of the Comment Code; for Log of liquid dish neat product liquid-air partition coefficient (Comment Code K/L): Comment Code letters K and/or L

Row | Structure (SMILES) | Log of liquid dish neat product liquid-air partition coefficient (Comment Code) | Comment Code: Log of liquid dish neat product liquid-air partition coefficient | Log of liquid dish neat product liquid-air partition coefficient (Comment Code K/L)
1 | CC1=CCOC(c2ccccc2)C1 (stereo not shown) [Material 1016] | K (Log of liquid dish neat product liquid-air partition coefficient greater than or equal to 7) | – | –
2 | C=C[C@@](C)(O)CCC=C(C)C [Material 1017] | – | K (Log of liquid dish neat product liquid-air partition coefficient greater than or equal to 7) | –
3 | C=CCc1ccc2c(c1)OCO2 [Material 1021] | K (Log of liquid dish neat product liquid-air partition coefficient greater than or equal to 7) | – | –
4 | CC1=CC(C)C2(CCCC(C)(C)C2=O)CC1 (stereo not shown) [Material 1022] | K (Log of liquid dish neat product liquid-air partition coefficient greater than or equal to 7) | K (Log of liquid dish neat product liquid-air partition coefficient greater than or equal to 7) | –
5 | CC1=CCC(CCC(C)C(C)O)C1(C)C (stereo not shown) [Material 1023] | K (Log of liquid dish neat product liquid-air partition coefficient greater than or equal to 7) | – | –
6 | CC/C(=C/CC1CC=C(C)C1(C)C)CO (stereo not shown) [Material 1024] | K (Log of liquid dish neat product liquid-air partition coefficient greater than or equal to 7) | K (Log of liquid dish neat product liquid-air partition coefficient greater than or equal to 7) | –
7 | CC(=CCC1CC=C(C)C1(C)C)CO (stereo not shown) [Material 1025] | K (Log of liquid dish neat product liquid-air partition coefficient greater than or equal to 7) | – | –
8 | COC1CC2CC1C1CC(C=O)CC21 (stereo not shown) [Material 1026] | K (Log of liquid dish neat product liquid-air partition coefficient greater than or equal to 7) | – | –
9 | COC1CC2CC1C1CC(C=O)CC21 (stereo not shown) [Material 1027] | K (Log of liquid dish neat product liquid-air partition coefficient greater than or equal to 7) | K (Log of liquid dish neat product liquid-air partition coefficient greater than or equal to 7) | –
10 | CC1=CC[C@@H]2[C@@]3(C)CCCC(C)(C)[C@@H]3CC[C@@]2(C)O1 [Material 1029] | K (Log of liquid dish neat product liquid-air partition coefficient greater than or equal to 7) | K (Log of liquid dish neat product liquid-air partition coefficient greater than or equal to 7) | –
11 | CCCOC(=O)[C@H](C)OC(C)(C)CC [Material 1030] | – | K (Log of liquid dish neat product liquid-air partition coefficient greater than or equal to 7) | –
12 | CC(C)Cc1ccc(CC(C)C=O)cc1 (stereo not shown) [Material 1033] | K (Log of liquid dish neat product liquid-air partition coefficient greater than or equal to 7) | – | –
13 | C=C1CC[C@@H]2[C@H]([C@H]3[C@H]1CC[C@]3(C)O)C2(C)C [Material 1035] | K (Log of liquid dish neat product liquid-air partition coefficient greater than or equal to 7) | K (Log of liquid dish neat product liquid-air partition coefficient greater than or equal to 7) | –
14 | CC1CCC2C(C2(C)C)C12COC(C)(C)OC2 (stereo not shown) [Material 1036] | K (Log of liquid dish neat product liquid-air partition coefficient greater than or equal to 7) | – | –
15 | C=CCCC(=O)C1=CCCC2(CCCC2)C1 [Material 1038] | K (Log of liquid dish neat product liquid-air partition coefficient greater than or equal to 7) | K (Log of liquid dish neat product liquid-air partition coefficient greater than or equal to 7) | –
16 | CC(=O)OC(C)c1ccccc1 (stereo not shown) [Material 1041] | – | K (Log of liquid dish neat product liquid-air partition coefficient greater than or equal to 7) | –
17 | CCCCCCC/C=C\CCC=O [Material 1045] | K (Log of liquid dish neat product liquid-air partition coefficient greater than or equal to 7) | – | –
18 | CC1=CC2C(C(C)C)CCC(C)(O)C2CC1 (stereo not shown) [Material 1046] | K (Log of liquid dish neat product liquid-air partition coefficient greater than or equal to 7) | – | –
19 | CC1=CC2C(C(C)C)CCC(C)(O)C2CC1 (stereo not shown) [Material 1047] | K (Log of liquid dish neat product liquid-air partition coefficient greater than or equal to 7) | – | –
20 | CC(O)CCC1C(C)CCCC1(C)C (stereo not shown) [Material 1052] | – | K (Log of liquid dish neat product liquid-air partition coefficient greater than or equal to 7) | –
21 | CCCC(O)CCC1C(C)CCCC1(C)C (stereo not shown) [Material 1063] | K (Log of liquid dish neat product liquid-air partition coefficient greater than or equal to 7) | – | –
22 | CC(C)=CCC/C(C)=C/CC/C(C)=C/CO [Material 1065] | K (Log of liquid dish neat product liquid-air partition coefficient greater than or equal to 7) | – | –

Row | Structure (SMILES) | Log of liquid dish neat product liquid-air partition coefficient (Comment Code) | Comment Code: Log of liquid dish neat product liquid-air partition coefficient | Log of liquid dish neat product liquid-air partition coefficient (Comment Code K/L)
23 | CC/C=C\C/C=C/CCO [Material 1072] | K (Log of liquid dish neat product liquid-air partition coefficient greater than or equal to 7) | – | –
24 | CC=CC(=O)C1C(C)=CCCC1(C)C (stereo not shown) [Material 1074] | – | K (Log of liquid dish neat product liquid-air partition coefficient greater than or equal to 7) | –
25 | CC(C)=CCC/C(C)=C/CO [Material 1082] | K (Log of liquid dish neat product liquid-air partition coefficient greater than or equal to 7) | – | –
26 | CCCCCC1C(=O)CCC1CC(=O)OC (stereo not shown) [Material 1083] | K (Log of liquid dish neat product liquid-air partition coefficient greater than or equal to 7) | – | –
27 | C/C=C/c1ccc(O)c(OC)c1 [Material 1084] | – | K (Log of liquid dish neat product liquid-air partition coefficient greater than or equal to 7) | –
28 | CCCCCCCCCCCCCO [Material 1090] | K (Log of liquid dish neat product liquid-air partition coefficient greater than or equal to 7) | – | –
29 | CC(=O)C1CC/C(C)=C\CC/C(C)=C\C/C=C/1C (stereo not shown) [Material 1095] | K (Log of liquid dish neat product liquid-air partition coefficient greater than or equal to 7) | – | –
30 | CC1CC2CCC3C(C2O1)C(C)(C)C(C)C3(C)C (stereo not shown) [Material 1097] | K (Log of liquid dish neat product liquid-air partition coefficient greater than or equal to 7) | K (Log of liquid dish neat product liquid-air partition coefficient greater than or equal to 7) | –
31 | CC1CC=CCCCCCCCC(=O)OCC1 (stereo not shown) [Material 1099] | K (Log of liquid dish neat product liquid-air partition coefficient greater than or equal to 7) | – | –
32 | CCCCCCCCCCC=O [Material 1102] | K (Log of liquid dish neat product liquid-air partition coefficient greater than or equal to 7) | – | –
33 | CCC=C(C)C(O)CCCCC (stereo not shown) [Material 1104] | K (Log of liquid dish neat product liquid-air partition coefficient greater than or equal to 7) | – | –
34 | C=C(C)[C@@H]1CCC2=CCC[C@@H](C)[C@]2(C)C1 [Material 1105] | K (Log of liquid dish neat product liquid-air partition coefficient greater than or equal to 7) | – | –
35 | C[C@@H]1CCC=C2CC[C@@H](C(C)(C)O)C[C@]21C [Material 1107] | K (Log of liquid dish neat product liquid-air partition coefficient greater than or equal to 7) | K (Log of liquid dish neat product liquid-air partition coefficient greater than or equal to 7) | –
36 | CC=Cc1ccc(OCC)c(O)c1 [Material 1112] | – | K (Log of liquid dish neat product liquid-air partition coefficient greater than or equal to 7) | –
37 | COCc1ccc(O)c(OC)c1 [Material 1113] | – | – | K (Log of liquid dish neat product liquid-air partition coefficient greater than or equal to 7)
38 | CC(C=O)=CCC1C(C)=CCCC1(C)C (stereo not shown) [Material 1116] | – | – | K (Log of liquid dish neat product liquid-air partition coefficient greater than or equal to 7)
39 | COc1ccc(C=O)cc1OC [Material 1118] | – | K (Log of liquid dish neat product liquid-air partition coefficient greater than or equal to 7) | –
40 | CC1CC(C)(c2ccccc2)OC(C)O1 (stereo not shown) [Material 1126] | – | – | K (Log of liquid dish neat product liquid-air partition coefficient greater than or equal to 7)
41 | CC(=O)C1=C(C)[C@@H]2C[C@@]3(C1)[C@H](C)CC[C@H]3C2(C)C [Material 1129] | – | K (Log of liquid dish neat product liquid-air partition coefficient greater than or equal to 7) | K (Log of liquid dish neat product liquid-air partition coefficient greater than or equal to 7)
42 | CC(=O)OC(C)CC(C)(C)c1ccccc1 (stereo not shown) [Material 1134] | – | K (Log of liquid dish neat product liquid-air partition coefficient greater than or equal to 7) | –
43 | C[C@@H]1CC[C@H]2[C@@H]1[C@H]1[C@@H](CC[C@]2(C)O)C1(C)C [Material 1140] | – | K (Log of liquid dish neat product liquid-air partition coefficient greater than or equal to 7) | K (Log of liquid dish neat product liquid-air partition coefficient greater than or equal to 7)
44 | C[C@H]1[C@@H]2C[C@H](C[C@@]13C=CC(=O)CC3)C2(C)C [Material 1143] | – | K (Log of liquid dish neat product liquid-air partition coefficient greater than or equal to 7) | K (Log of liquid dish neat product liquid-air partition coefficient greater than or equal to 7)
